# Results reported in ChEMBL document CHEMBL5321233, “Biological activity of 1,2,3-triazole-2-amino-1,4-naphthoquinone derivatives and their evaluation as therapeutic strategy for malaria control” (Eur J Med Chem, 2023).
# The source made the active and inactive calls. No cut-off for these calls is given here.
# Assays:
# [1] = Acute toxicity in Albino Swiss mouse assessed as behavioural toxicity at 300 mg/kg, po administered as single dose measured after 14 days; assay type: organism-based; conditions: in vivo, 336 h, time 14 day
# Plasmodium falciparum [2] = assay: Induction of morphological changes in chloroquine-resistant Plasmodium falciparum W2 at early trophozoite stage assessed as rounded nucleus with degenerative changes by TEM analysis; assay type: functional, organism-based
# [3] = Hemolytic activity in human red blood cells assessed as hemoglobin release at 250 to 15.6 uM incubated for 60 mins by spectrophotometry; assay type: toxicity, cell-based, Erythrocyte; conditions: dose 250-15.6 µM, read-out: Activity
# Plasmodium falciparum [4] = assay: Induction of morphological changes in chloroquine-resistant Plasmodium falciparum W2 at early trophozoite stage assessed as degenerating organelles by TEM analysis; assay type: functional, organism-based
# [5] = Acute toxicity in Albino Swiss mouse assessed as developmment-delimiting germinal center in spleen at 300 mg/kg, po administered as single dose measured after 14 days by H and E staining based analysis; assay type: organism-based; conditions: in vivo, 336 h, time 14 day
# Plasmodium berghei [6] = assay: Antimalarial activity against Plasmodium berghei ANKA infected in Albino Swiss mouse assessed as reduction in parasitemia at 30 mg/kg, po administered for 4 consecutive days measured after day 7 relative to control; assay type: functional; set-up: scale not given: the % may be the effect or the level left; conditions: time 7 day
# [7] = Toxicity in Albino Swiss mouse infected with Plasmodium berghei ANKA assessed as animal survival at 30 mg/kg, po administered for 4 consecutive days measured for 14 days relative to control; assay type: organism-based; conditions: in vivo, time 14 day
# [8] = Acute toxicity in Albino Swiss mouse assessed as fusion of lymphoid follicles in spleen at 300 mg/kg, po administered as single dose measured after 14 days by H and E staining based analysis; assay type: organism-based; conditions: in vivo, 336 h, time 14 day
# [9] = Acute toxicity in Albino Swiss mouse assessed as podocytes with discrete thickening of basal membrane in kidney at 300 mg/kg, po administered as single dose measured after 14 days by H and E staining based analysis; assay type: organism-based; conditions: in vivo, 336 h, time 14 day
# Plasmodium falciparum [10] = assay: Induction of morphological changes in chloroquine-resistant Plasmodium falciparum W2 at early trophozoite stage assessed as development-limiting of plasma membrane by TEM analysis; assay type: functional, organism-based
# [11] = Acute toxicity in Albino Swiss mouse assessed as change in motor function at 300 mg/kg, po administered as single dose measured after 14 days; assay type: organism-based; conditions: in vivo, 336 h, time 14 day
# Plasmodium berghei [12] = assay: Antimalarial activity against Plasmodium berghei ANKA infected in Albino Swiss mouse assessed as reduction in parasitemia at 30 mg/kg, po administered for 4 consecutive days measured after day 5 relative to control; assay type: functional; set-up: scale not given: the % may be the effect or the level left; conditions: time 5 day
# [13] = Acute toxicity in Albino Swiss mouse assessed as signs of hyperemia at 300 mg/kg, po administered as single dose measured after 14 days; assay type: organism-based; conditions: in vivo, 336 h, time 14 day
# [14] = Acute toxicity in Albino Swiss mouse assessed as signs of cyanosis at 300 mg/kg, po administered as single dose measured after 14 days; assay type: organism-based; conditions: in vivo, 336 h, time 14 day
# Plasmodium falciparum [15] = assay: Induction of morphological changes in chloroquine-resistant Plasmodium falciparum W2 at early trophozoite stage assessed as development-limiting of parasitophorous vacuole membrane by TEM analysis; assay type: functional, organism-based
# [16] = Acute toxicity in Albino Swiss mouse assessed as change in sensory function at 300 mg/kg, po administered as single dose measured after 14 days; assay type: organism-based; conditions: in vivo, 336 h, time 14 day
# [17] = Acute toxicity in Albino Swiss mouse assessed as acidophilic cytoplasm with micro-steatosis in liver at 300 mg/kg, po administered as single dose measured after 14 days by H and E staining based analysis; assay type: organism-based; conditions: in vivo, 336 h, time 14 day
# [18] = Acute toxicity in Albino Swiss mouse assessed as activated macrophages in spleen at 300 mg/kg, po administered as single dose measured after 14 days by H and E staining based analysis; assay type: organism-based; conditions: in vivo, 336 h, time 14 day
# [19] = Acute toxicity in Albino Swiss mouse assessed as necrosis of hepatocytes at 300 mg/kg, po administered as single dose measured after 14 days by H and E staining based analysis; assay type: organism-based; conditions: in vivo, 336 h, time 14 day
# Plasmodium berghei [20] = assay: Antimalarial activity against Plasmodium berghei ANKA infected in Albino Swiss mouse assessed as half-survival time at 30 mg/kg, po administered for 4 consecutive days measured for 30 days (reference value: 16 day); assay type: functional; conditions: time 30 day
# [21] = Acute toxicity in Albino Swiss mouse assessed as atrophic glomerulus with congested capillaries in kidney at 300 mg/kg, po administered as single dose measured after 14 days by H and E staining based analysis; assay type: organism-based; conditions: in vivo, 336 h, time 14 day
# [22] = Acute toxicity in Albino Swiss mouse assessed as change in defecation at 300 mg/kg, po administered as single dose measured after 14 days; assay type: organism-based; conditions: in vivo, 336 h, time 14 day
# [23] = Octanol-water partition coefficient, logP of the compound; assay type: physicochemical
# [24] = Acute toxicity in Albino Swiss mouse assessed as change in urination volume at 300 mg/kg, po administered as single dose measured after 14 days; assay type: organism-based; conditions: in vivo, 336 h, time 14 day
# [25] = Acute toxicity in Albino Swiss mouse assessed as change in relative weight of kidney at 300 mg/kg, po administered as single dose measured after 14 days; assay type: organism-based; conditions: in vivo, 336 h, time 14 day
# [26] = Acute toxicity in Albino Swiss mouse assessed as distribution of hemosiderophages in parenchyma of spleen at 300 mg/kg, po administered as single dose measured after 14 days by H and E staining based analysis; assay type: organism-based; conditions: in vivo, 336 h, time 14 day
# [27] = Acute toxicity in Albino Swiss mouse assessed as contortions at 300 mg/kg, po administered as single dose measured after 14 days; assay type: organism-based; conditions: in vivo, 336 h, time 14 day
# [28] = Acute toxicity in Albino Swiss mouse assessed as change in urine color at 300 mg/kg, po administered as single dose measured after 14 days; assay type: organism-based; conditions: in vivo, 336 h, time 14 day
# [29] = Selectivity index, ratio of CC50 for African green monkey Vero cells to IC50 for chloroquine-resistant Plasmodium falciparum W2 infected in human erythrocytes; assay type: toxicity, cell-based; conditions: read-out: Ratio CC50/IC50
# [30] = Acute toxicity in Albino Swiss mouse assessed as change in diarrhea at 300 mg/kg, po administered as single dose measured after 14 days; assay type: organism-based; conditions: in vivo, 336 h, time 14 day
# [31] = Hemolytic activity in human red blood cells type A assessed as hemoglobin release at 500 to 1000 uM incubated for 60 mins by spectrophotometry; assay type: toxicity, cell-based, Erythrocyte; conditions: dose 500-1000 µM, read-out: Activity
# [32] = Acute toxicity in Albino Swiss mouse assessed as mesangial cells reduction in kidney at 300 mg/kg, po administered as single dose measured after 14 days by H and E staining based analysis; assay type: organism-based; conditions: in vivo, 336 h, time 14 day
# [33] = Acute toxicity in Albino Swiss mouse assessed as escape reaction at 300 mg/kg, po administered as single dose measured after 14 days; assay type: organism-based; conditions: in vivo, 336 h, time 14 day
# [34] = Acute toxicity in Albino Swiss mouse assessed as congestion of hepatic portal vein in liver at 300 mg/kg, po administered as single dose measured after 14 days by H and E staining based analysis; assay type: organism-based; conditions: in vivo, 336 h, time 14 day
# [35] = Acute toxicity in Albino Swiss mouse assessed as signs of toxicity at 300 mg/kg, po administered as single dose measured after 14 days; assay type: organism-based; conditions: in vivo, 336 h, time 14 day
# [36] = Acute toxicity in Albino Swiss mouse assessed as recurrent tubules with loss of polarity in kidney at 300 mg/kg, po administered as single dose measured after 14 days by H and E staining based analysis; assay type: organism-based; conditions: in vivo, 336 h, time 14 day
# Plasmodium falciparum [37] = assay: Antimalarial activity against chloroquine-resistant Plasmodium falciparum W2 infected in human erythrocytes assessed as parasite growth inhibition incubated for 48 hrs by geimsa staining based microscopy; assay type: functional, organism-based; conditions: W2, Erythrocyte
# [38] = Acute toxicity in Albino Swiss mouse assessed as signs of pallor at 300 mg/kg, po administered as single dose measured after 14 days; assay type: organism-based; conditions: in vivo, 336 h, time 14 day
# [39] = Acute toxicity in Albino Swiss mouse assessed as granular degeneration in liver at 300 mg/kg, po administered as single dose measured after 14 days by H and E staining based analysis; assay type: organism-based; conditions: in vivo, 336 h, time 14 day
# [40] = Cytotoxicity against African green monkey Vero cells incubated for 24 hrs by MTT assay; assay type: toxicity, cell-based; conditions: chlorocebus sabaeus
# [41] = Acute toxicity in Albino Swiss mouse assessed as aggressiveness at 300 mg/kg, po administered as single dose measured after 14 days; assay type: organism-based; conditions: in vivo, 336 h, time 14 day
# [42] = Acute toxicity in Albino Swiss mouse assessed as change in relative weight of liver at 300 mg/kg, po administered as single dose measured after 14 days; assay type: organism-based; conditions: in vivo, 336 h, time 14 day
# [43] = Acute toxicity in Albino Swiss mouse assessed as change in relative weight of spleen at 300 mg/kg, po administered as single dose measured after 14 days; assay type: organism-based; conditions: in vivo, 336 h, time 14 day
# [44] = Acute toxicity in Albino Swiss mouse assessed as acidophilic cytoplasm with macro-vacuoles in liver at 300 mg/kg, po administered as single dose measured after 14 days by H and E staining based analysis; assay type: organism-based; conditions: in vivo, 336 h, time 14 day
# [45] = Selectivity index, ratio of CC50 for human HepG2 cells to IC50 for chloroquine-resistant Plasmodium falciparum W2 infected in human erythrocytes; assay type: toxicity, cell-based; conditions: read-out: Ratio CC50/IC50
# [46] = Acute toxicity in Albino Swiss mouse assessed as congestion of globular center vein in liver at 300 mg/kg, po administered as single dose measured after 14 days by H and E staining based analysis; assay type: organism-based; conditions: in vivo, 336 h, time 14 day
# [47] = Acute toxicity in Albino Swiss mouse assessed as hyperplasia in spleen at 300 mg/kg, po administered as single dose measured after 14 days by H and E staining based analysis; assay type: organism-based; conditions: in vivo, 336 h, time 14 day
# [48] = Acute toxicity in Albino Swiss mouse assessed as animal mortality at 300 mg/kg, po administered as single dose measured after 14 days; assay type: organism-based; conditions: in vivo, 336 h, time 14 day
# HepG2 = assay: Cytotoxicity against human HepG2 cells incubated for 24 hrs by MTT assay; assay type: functional
smiles,measurement,setting,value
O=C1C=C(NCCn2cc(C3(O)CCCCC3)nn2)C(=O)c2ccccc21,Activity,[1],Non-Toxic
same,Activity,Plasmodium falciparum [2],Active
same,hemolysis at 1 h,[3],< 40%
same,Activity,Plasmodium falciparum [4],Active
same,Activity,[5],Toxic
same,Activity,Plasmodium berghei [6],35%
same,survival at 336 h,[7],100%
same,Activity,[8],Toxic
same,Activity,[9],Toxic
same,Activity,Plasmodium falciparum [10],Active
same,Activity,[11],Non-Toxic
same,Activity,Plasmodium berghei [12],38.5%
same,Activity,[13],Non-Toxic
same,Activity,[14],Non-Toxic
same,Activity,Plasmodium falciparum [15],Active
same,Activity,[16],Non-Toxic
same,Activity,[17],Toxic
same,Activity,[18],Toxic
same,Activity,[19],Toxic
same,Survival,Plasmodium berghei [20],38.5 days
same,Activity,[21],Toxic
same,Activity,[22],Non-Toxic
same,logP,[23],2.55
same,Activity,[24],Non-Toxic
same,Activity,[25],Non-Toxic
same,Activity,[26],Toxic
same,Activity,[27],Non-Toxic
same,Activity,[28],Non-Toxic
same,selectivity ratio,[29],495
same,Activity,[30],Non-Toxic
same,"hemolysis at 1 h, up to 1000 µM",[31],> 40%
same,Activity,[32],Toxic
same,Activity,[33],Non-Toxic
same,Activity,[34],Toxic
same,Activity,[35],Non-Toxic
same,Activity,[36],Toxic
same,IC50,Plasmodium falciparum [37],2.7 µM
same,Activity,[38],Non-Toxic
same,Activity,[39],Toxic
same,CC50 at 24 h,[40],1340 µM
same,Activity,[41],Non-Toxic
same,Activity,[42],Non-Toxic
same,Activity,[43],Non-Toxic
same,Activity,[44],Toxic
same,selectivity ratio,[45],163
same,Activity,[46],Toxic
same,Activity,[47],Toxic
same,Activity,[48],Non-Toxic
same,CC50,HepG2,441 µM
